Test results: ChEMBL document CHEMBL2177023, “Effects of antimalarial molecules on the gametocyte stage of Plasmodium falciparum: the debate” (J Med Chem, 2012)

Key:
[1] = test system: Plasmodium falciparum; experiment: Antimalarial activity against Plasmodium falciparum gametocytes; format: functional, organism-based
[2] = test system: Plasmodium falciparum; experiment: Antimalarial activity against Plasmodium falciparum KT3 gametocytes; format: functional, organism-based
[3] = test system: Plasmodium falciparum; experiment: Antimalarial activity against Plasmodium falciparum KT1 gametocytes; format: functional, organism-based
[4] = test system: Plasmodium berghei; experiment: Antimalarial activity against Plasmodium berghei infected in mosquitoes assessed as reduction in number of sporozoites; format: functional; design: scale not given: the % may be the effect or the level left
[5] = test system: Plasmodium berghei; experiment: Antimalarial activity against Plasmodium berghei infected in mosquitoes assessed as reduction in number of oocysts; format: functional; design: scale not given: the % may be the effect or the level left
[6] = test system: Plasmodium chabaudi; experiment: Antimalarial activity against Plasmodium chabaudi infected rat malaria model; format: functional
[7] = test system: Plasmodium falciparum; experiment: Antimalarial activity against Plasmodium falciparum stage 3 to 5 gametocytes; format: functional, organism-based
[8] = test system: Plasmodium falciparum; experiment: Antimalarial activity against Plasmodium falciparum gametocytes by GFP-luciferase reporter gene assay; format: functional, organism-based
[9] = test system: Plasma; experiment: (§1) Half life in human plasma; format: ADME, cell-free
[10] = test system: Plasmodium falciparum; experiment: Antimalarial activity against transgenic Plasmodium falciparum 3D7 GFP16B gametocytes; format: functional, organism-based
[11] = as §1; format: ADME, cell-free

COc1cc(N[C@H](C)CCCN)c2nccc(C)c2c1Oc1ccc(Cl)c(Cl)c1
IC50 [1]: 3800 nM

CN(C)Cc1ccc(Nc2c3ccccc3nc3ccccc23)cc1
IC50 [2]: 600 nM
IC50 [3]: 600 nM

COc1cc2cc(C(=O)Nc3cc(N)c4ccccc4c3CCCl)[nH]c2c(OC)c1OC [CENTANAMYCIN]
Activity [4]: 99%
Activity [5]: 83%
ED50 [6]: 1.5 mg/kg

CC[C@H](C)[C@H](NC(=O)[C@H]([C@@H](C)CC)N(C)C(C)=O)C(=O)N[C@H](C(=O)N[C@@H](CC(C)C)C(=O)[C@@]1(C)CO1)[C@@H](C)O [EPOXOMYCIN]
IC50 [7]: 2 nM

CN(C)c1ccc2nc3ccc(=[N+](C)C)cc-3sc2c1 [METHYLENE BLUE CATION]
IC50 [8]: 12 nM

COc1cc(NC(C)CCCN)c2ncccc2c1 (stereo unspecified) [PRIMAQUINE]
IC50 [2]: 2100 nM
IC50 [3]: 800 nM
t1/2 [9]: 0.03 weeks

COc1ccc2nc3cc(Cl)ccc3c(Nc3cc(CN4CCCC4)c(O)c(CN4CCCC4)c3)c2n1 [PYRONARIDINE]
IC50 [10]: 23 nM
IC50 [2]: 20 nM
IC50 [3]: 6 nM

COc1cc(C)c2c(Oc3cccc(C(F)(F)F)c3)c(OC)cc(NC(C)CCCN)c2n1 (stereo unspecified) [TAFENOQUINE]
half-life [11]: 14 days

C=C(NC(=O)C(=C)NC(=O)c1csc(C2=N[C@@H]3c4csc(n4)[C@H]4NC(=O)c5csc(n5)[C@H]([C@](C)(O)[C@@H](C)O)NC(=O)[C@H]5CSC(=N5)/C(=C/C)NC(=O)[C@H]([C@@H](C)O)NC(=O)c5csc(n5)[C@]3(CC2)NC(=O)[C@H](C)NC(=O)C(=C)NC(=O)[C@H](C)NC(=O)[C@H]([C@@H](C)CC)N[C@@H]2C=Cc3c([C@H](C)O)cc(nc3[C@H]2O)C(=O)O[C@@H]4C)n1)C(N)=O [THIOSTREPTON]
IC50 [1]: < 10000 nM
